The record followed here is US20110046131A1, “PURINES AS PKC-THETA INHIBITORS” (N.V. Organon and Pharmacopeia, LLC, priority 2006, published 2011).

Assay [1] has as its system anti-CD3 induced interleukin-2 (IL-2) production. As to the kind of experiment: anti-CD3 induced interleukin-2 (IL-2) production in mice. It is filed as in vivo. On the procedure: The compounds of the invention were also tested in vivo.
In assay [2] the target is T1, PKC alpha (Homo sapiens, UniProt P17252).
T1 construct: purchased Pan Vera
As to the kind of experiment: Ki Pan Vera (PV) potency for PKC alpha. Type of assay: biochemical. Particulars: Ki Pan Vera (PV) of PKC alpha. On the procedure:
[The source words this procedure for another target and reports this target under the same test.] (§1) For Ki Pan Vera (PV) of PKCθ, entries identified with “A” had values below 100 nM; entries identified with “B” had values below 1 μM; and entries identified with “C” had values below 10 μM.

In assay [3] the target is T2, PKCθ (Homo sapiens, UniProt Q04759).
T2 construct: purchased Pan Vera
Briefly: Ki Pan Vera (PV) potency for PKCθ. Type of assay: biochemical. Particulars: Ki Pan Vera (PV) of PKCθ. On the procedure: as §1

Assay [4] addresses T3, PKC delta (Homo sapiens, UniProt Q05655).
T3 construct: purchased Pan Vera
Briefly: Ki Pan Vera (PV) potency for PKC delta. Type of assay: biochemical. Particulars: Ki Pan Vera (PV) of PKC delta. On the procedure:
[The source words this procedure for another target and reports this target under the same test.] as §1

In assay [5] the target is T4, SGK kinase (Homo sapiens, UniProt O00141).
T4 sequence (O00141 1-431): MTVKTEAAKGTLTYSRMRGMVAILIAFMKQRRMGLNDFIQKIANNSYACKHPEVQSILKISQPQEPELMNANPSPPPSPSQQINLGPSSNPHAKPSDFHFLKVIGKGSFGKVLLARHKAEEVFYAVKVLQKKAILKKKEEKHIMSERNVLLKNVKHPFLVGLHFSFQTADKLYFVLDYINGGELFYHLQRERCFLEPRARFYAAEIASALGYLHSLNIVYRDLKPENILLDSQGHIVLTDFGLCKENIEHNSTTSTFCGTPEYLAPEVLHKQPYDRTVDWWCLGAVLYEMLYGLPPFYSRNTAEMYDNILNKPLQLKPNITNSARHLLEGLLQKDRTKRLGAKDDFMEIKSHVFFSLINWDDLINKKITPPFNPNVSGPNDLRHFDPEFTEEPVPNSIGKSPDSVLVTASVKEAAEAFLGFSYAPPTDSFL
Briefly: IC50 for SGK kinase (selectivity). Type of assay: biochemical. Particulars: for IC50: read-out: IC50-SGK1. On the procedure: Entries identified with “1” had values above 250 nM; entries identified with “2” had values above 1 μM; entries identified with “3” had values above 10 μM.

T3 sequence (Q05655 whole entry): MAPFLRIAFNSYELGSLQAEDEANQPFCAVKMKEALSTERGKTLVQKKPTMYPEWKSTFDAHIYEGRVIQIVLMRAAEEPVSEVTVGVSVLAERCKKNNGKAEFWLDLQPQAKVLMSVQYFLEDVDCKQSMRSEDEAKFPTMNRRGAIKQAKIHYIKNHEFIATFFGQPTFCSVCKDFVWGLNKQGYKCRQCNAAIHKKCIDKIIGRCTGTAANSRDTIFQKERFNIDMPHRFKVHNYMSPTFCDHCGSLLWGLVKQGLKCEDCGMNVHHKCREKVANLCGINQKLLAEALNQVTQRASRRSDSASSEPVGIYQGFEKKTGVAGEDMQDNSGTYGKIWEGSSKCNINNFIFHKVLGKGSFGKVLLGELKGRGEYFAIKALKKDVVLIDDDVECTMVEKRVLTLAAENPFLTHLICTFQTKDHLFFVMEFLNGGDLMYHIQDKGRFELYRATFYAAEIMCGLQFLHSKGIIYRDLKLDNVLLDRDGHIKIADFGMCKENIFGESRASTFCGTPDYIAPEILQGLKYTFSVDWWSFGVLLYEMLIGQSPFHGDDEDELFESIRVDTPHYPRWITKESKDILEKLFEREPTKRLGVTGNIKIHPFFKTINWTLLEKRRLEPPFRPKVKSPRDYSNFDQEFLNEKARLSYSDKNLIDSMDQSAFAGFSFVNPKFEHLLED
T2 sequence (Q04759 whole entry): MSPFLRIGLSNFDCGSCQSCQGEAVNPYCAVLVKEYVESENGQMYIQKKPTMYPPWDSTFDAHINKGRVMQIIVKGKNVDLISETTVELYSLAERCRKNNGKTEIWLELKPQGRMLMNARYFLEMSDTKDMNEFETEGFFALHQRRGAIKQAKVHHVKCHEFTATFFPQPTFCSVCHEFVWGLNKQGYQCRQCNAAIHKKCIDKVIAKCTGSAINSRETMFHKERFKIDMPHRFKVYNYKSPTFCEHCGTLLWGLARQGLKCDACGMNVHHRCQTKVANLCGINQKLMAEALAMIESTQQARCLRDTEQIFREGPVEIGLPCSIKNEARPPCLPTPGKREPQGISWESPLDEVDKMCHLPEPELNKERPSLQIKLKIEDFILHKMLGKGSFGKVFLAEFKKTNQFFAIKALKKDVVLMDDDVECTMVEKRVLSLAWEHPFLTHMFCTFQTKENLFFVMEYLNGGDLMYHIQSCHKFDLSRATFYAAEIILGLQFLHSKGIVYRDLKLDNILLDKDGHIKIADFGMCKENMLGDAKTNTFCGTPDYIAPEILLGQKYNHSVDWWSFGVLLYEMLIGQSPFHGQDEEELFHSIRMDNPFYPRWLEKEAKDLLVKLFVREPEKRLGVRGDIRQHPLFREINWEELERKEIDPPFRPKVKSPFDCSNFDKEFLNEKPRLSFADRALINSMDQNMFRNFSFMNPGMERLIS

What is called Ki is a dissociation constant, usually derived from enzyme kinetics or from competition with a known ligand. For the compound `Fc1ccc(CNc2ncc3nc(-c4c(F)cccc4Cl)n(C[C@@H]4CCCNC4)c3n2)cc1F` [Compound 113, N-(3,4-difluorobenzyl)-8-(2-chloro-6-fluorophenyl)-9-((R)-piperidin-3-ylmethyl)-9H-purin-2-amine], the “% inhibition of IL-2 production” value in assay [1] (subcutaneous dose 30 mg/kg) is listed as 38%. In addition, the Ki is > 1000 nM in assay [2], < 100 nM in assay [3] and > 250 nM in assay [4].

As for `Fc1ccc(CNc2ncc3nc(-c4c(Cl)cccc4Cl)n(C[C@H]4CCNC4)c3n2)cc1Cl` [Compound 120], in assay [1] (subcutaneous dose 30 mg/kg), the “% inhibition of IL-2 production” value turned out to be 35%. The IC50-SGK1 result in assay [5] is “Inactive”. Further, the Ki is > 1000 nM in assay [2], < 1000 nM in assay [3] and > 1000 nM in assay [4].

For `C=CC[C@@H]1/C=C(\C)C[C@H](C)C[C@H](OC)[C@H]2O[C@@](O)(C(=O)C(=O)N3CCCC[C@H]3C(=O)O[C@H](/C(C)=C/[C@@H]3CC[C@@H](O)[C@H](OC)C3)[C@H](C)[C@@H](O)CC1=O)[C@H](C)C[C@@H]2OC` [FK506, reference compound], the “% inhibition of IL-2 production” value in assay [1] (subcutaneous dose 1 mg/kg) is listed as 87%.

Consider `Fc1ccc(CNc2ncc3nc(-c4c(Cl)cccc4Cl)n(C[C@@H]4CCCNC4)c3n2)cc1F` [Compound 101], for which, in assay [1] (subcutaneous dose 30 mg/kg), the “% inhibition of IL-2 production” value came to 58%. In addition, the IC50-SGK1 result in assay [5] is given as “Inactive”. Also, the Ki in assay [2] was > 1000 nM; in assay [3] it was < 100 nM; in assay [4] it was > 250 nM.

Consider `Fc1ccccc1CNc1ncc2c(n1)C(C[C@H]1CCCNC1)C(c1c(Cl)cccc1Cl)=N2` (stereo partly shown) [Compound 129], for which the IC50-SGK1 entry in assay [5] is recorded as “Inactive”. In addition, the values for the Ki in assay [2], in assay [3] and in assay [4] were > 1000 nM, < 1000 nM and > 1000 nM, respectively.

For `C[C@H](Nc1ncc2nc(-c3c(Cl)cccc3Cl)n(C[C@@H]3CCCNC3)c2n1)c1ccccc1F` [Compound 116], the IC50-SGK1 entry in assay [5] is “Inactive”. The Ki in assay [2] is > 10000 nM; in assay [3], < 1000 nM; in assay [4] it was > 1000 nM.

Usually IC50 stands for the midpoint of a concentration-inhibition curve. `Fc1ccc(F)c(CNc2ncc3nc(-c4c(F)cccc4Cl)n(C[C@@H]4CCCNC4)c3n2)c1` [Compound 124]: the IC50 in assay [5] is > 10000 nM. Besides, the Ki in assay [2] is > 1000 nM; in assay [3], < 1000 nM; in assay [4] it was > 1000 nM.

In the case of `Fc1ccc(CNc2ncc3nc(-c4ccccc4Cl)n(C[C@@H]4CCCNC4)c3n2)cc1` [Compound 171], the IC50-SGK1 entry in assay [5] is given as “Inactive”. Besides, the Ki in assay [2] is > 1000 nM; in assay [3], < 1000 nM; in assay [4], > 1000 nM.

As for `Fc1ccc(F)c(CNc2ncc3nc(-c4ccccc4Cl)n(C[C@@H]4CCCNC4)c3n2)c1` [Compound 167], in assay [5], the IC50-SGK1 entry is on record as “Inactive”. Further, the Ki is > 10000 nM in assay [2], < 1000 nM in assay [3] and > 1000 nM in assay [4].

With `NCCN1CCC(n2c(-c3c(Cl)cccc3Cl)nc3cnc(NCc4ccccc4F)nc32)CC1` [Compound 143], the IC50-SGK1 entry in assay [5] is “Inactive”. In addition, the Ki in assay [2] is > 1000 nM; in assay [3] it was < 1000 nM; in assay [4], > 1000 nM.

On to `Fc1ccccc1CNc1ncc2nc(-c3c(Cl)cccc3Cl)n(C[C@@H]3CCCNC3)c2n1` [Compound 110], for which, in assay [5], the half-maximal inhibitory concentration (IC50) is > 1000 nM. Moreover, the Ki in assay [2] is > 1000 nM; in assay [3], < 100 nM; in assay [4], > 1000 nM.

On to `Fc1ccccc1CNc1ncc2nc(-c3c(F)cccc3Cl)n(C[C@H]3CCCNC3)c2n1` [Compound 162], for which, in assay [5], the IC50-SGK1 entry is “Inactive”. Besides, the Ki in assay [2] is > 1000 nM; in assay [3] it was < 1000 nM; in assay [4], > 10000 nM.

On to `Fc1ccc(CNc2ncc3nc(-c4c(F)cccc4Cl)n(C[C@@H]4CCCNC4)c3n2)c(F)c1` [Compound 144], for which the IC50-SGK1 result in assay [5] was “Inactive”. The Ki is > 1000 nM in assay [2], < 1000 nM in assay [3] and > 1000 nM in assay [4].

As for `Fc1cccc(Cl)c1-c1nc2cnc(NCc3cccc(Cl)c3)nc2n1C[C@H]1CCNC1` [Compound 216], in assay [5], the IC50-SGK1 entry is reported as “Inactive”. Besides, the Ki in assay [2] was > 1000 nM; in assay [3] it was < 1000 nM; in assay [4] it was > 1000 nM.

Regarding `Fc1ccc(CNc2ncc3nc(-c4c(Cl)cccc4Cl)n(C[C@@H]4CCCNC4)c3n2)cc1Cl` [Compound 100], in assay [1] (subcutaneous dose 30 mg/kg), the “% inhibition of IL-2 production” value was 38%. Also, in assay [5], the IC50-SGK1 result is “Inactive”. Moreover, the inhibition constant Ki in assay [2] is > 1000 nM; in assay [3], < 100 nM; in assay [4], > 250 nM.

For `Fc1ccc(Cl)cc1CNc1ncc2nc(-c3c(Cl)cccc3Cl)n(C[C@@H]3CCCNC3)c2n1` [Compound 106], the IC50-SGK1 entry in assay [5] is given as “Inactive”. Besides, the Ki is > 10000 nM in assay [2], < 1000 nM in assay [3] and > 1000 nM in assay [4].

For `Fc1ccc(CNc2ncc3nc(-c4c(Cl)cccc4Cl)n(C[C@H]4CCNC4)c3n2)cc1F` [Compound 121], the IC50-SGK1 entry in assay [5] is on record as “Inactive”. Further, the Ki in assay [2] was > 1000 nM; in assay [3], < 100 nM; in assay [4] it was > 1000 nM.

With `Fc1ccccc1CNc1ncc2nc(-c3c(F)cccc3Cl)n(CC3CCCNC3)c2n1` (stereo not shown) [Compound 160], the IC50-SGK1 entry in assay [5] is “Inactive”. Also, the Ki was > 1000 nM in assay [2], < 1000 nM in assay [3] and > 1000 nM in assay [4].

Regarding `Fc1ccc(Cl)cc1CNc1ncc2nc(-c3c(F)cccc3Cl)n(C[C@@H]3CCCNC3)c2n1` [Compound 115], in assay [5], the IC50 was > 10000 nM. For the same compound, the Ki in assay [2] is > 10000 nM; in assay [3], < 1000 nM; in assay [4] it was > 1000 nM.

In the case of `Fc1ccc(F)c(CNc2ncc3nc(-c4c(Cl)cccc4Cl)n(C[C@H]4CCNC4)c3n2)c1` [Compound 125], the IC50-SGK1 entry in assay [5] was “Inactive”. Besides, the Ki was > 1000 nM in assay [2], < 1000 nM in assay [3] and > 1000 nM in assay [4].

As for `Fc1cc(Cl)ccc1CNc1ncc2nc(-c3c(Cl)cccc3Cl)n(C[C@@H]3CCCNC3)c2n1` [Compound 213], the IC50-SGK1 entry in assay [5] is reported as “Inactive”. In addition, the figures for the Ki in assay [2], in assay [3] and in assay [4] were > 10000 nM, < 10000 nM and > 10000 nM, respectively.

On to `Fc1ccccc1CNc1ncc2nc(-c3ccccc3Cl)n(CCC3CCNCC3)c2n1` [Compound 240], for which the IC50-SGK1 result in assay [5] is “Inactive”. Moreover, the inhibition constant (Ki) in assay [2] was > 10000 nM; in assay [3], < 1000 nM; in assay [4], > 1000 nM.

As for `Fc1cc(F)cc(CNc2ncc3nc(-c4c(Cl)cccc4Cl)n(CCC4CCNCC4)c3n2)c1` [Compound 146], the IC50-SGK1 entry in assay [5] is given as “Inactive”. Further, the Ki in assay [2] is > 1000 nM; in assay [3] it was < 1000 nM; in assay [4] it was > 1000 nM.

As for `Fc1ccc(F)c(CNc2ncc3nc(-c4c(Cl)cccc4Cl)n(CC4CCNC4)c3n2)c1` (stereo not shown) [Compound 161], the 50% inhibitory concentration (IC50) in assay [5] is > 10000 nM. The Ki in assay [2] was > 250 nM; in assay [3], < 100 nM; in assay [4], > 250 nM.

Regarding `CC(Nc1ncc2nc(-c3c(Cl)cccc3Cl)n(CCC3CCNCC3)c2n1)c1ccccc1` (stereo not shown) [Compound 212], the IC50-SGK1 entry in assay [5] is “Inactive”. In addition, the results for the Ki in assay [2], in assay [3] and in assay [4] were > 10000 nM, < 10000 nM and > 10000 nM, respectively.
